This passage reports remaining activity results from paper PMC9719519, “Non-classical ferroptosis inhibition by a small molecule targeting PHB2” (Nature Communications, 2022).

What all share (test): biochemical
What all share (parameters): Eurofins recombinant human kinase profiling, remaining kinase activity as % of control, 10 uM ATP
What all share (details): ATP 10 uM; read-out: %Ctrl@10 μM

The target in one experiment is Flt3(h) (Homo sapiens, UniProt P36888). The method, boiled down: (§1)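 Activity measured in a commercial panel of 401 recombinant human protein kinases run as a kinase profiling service.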
The target in a further experiment is T1, FAK(h) (Homo sapiens, UniProt Q05397).
T1 construct: gene PTK2
Put shortly: as §1

The target in a further experiment is T2, Pyk2(h) (Homo sapiens, UniProt Q14289).
T2 construct: gene PTK2B
T2 sequence (Q14289 whole entry): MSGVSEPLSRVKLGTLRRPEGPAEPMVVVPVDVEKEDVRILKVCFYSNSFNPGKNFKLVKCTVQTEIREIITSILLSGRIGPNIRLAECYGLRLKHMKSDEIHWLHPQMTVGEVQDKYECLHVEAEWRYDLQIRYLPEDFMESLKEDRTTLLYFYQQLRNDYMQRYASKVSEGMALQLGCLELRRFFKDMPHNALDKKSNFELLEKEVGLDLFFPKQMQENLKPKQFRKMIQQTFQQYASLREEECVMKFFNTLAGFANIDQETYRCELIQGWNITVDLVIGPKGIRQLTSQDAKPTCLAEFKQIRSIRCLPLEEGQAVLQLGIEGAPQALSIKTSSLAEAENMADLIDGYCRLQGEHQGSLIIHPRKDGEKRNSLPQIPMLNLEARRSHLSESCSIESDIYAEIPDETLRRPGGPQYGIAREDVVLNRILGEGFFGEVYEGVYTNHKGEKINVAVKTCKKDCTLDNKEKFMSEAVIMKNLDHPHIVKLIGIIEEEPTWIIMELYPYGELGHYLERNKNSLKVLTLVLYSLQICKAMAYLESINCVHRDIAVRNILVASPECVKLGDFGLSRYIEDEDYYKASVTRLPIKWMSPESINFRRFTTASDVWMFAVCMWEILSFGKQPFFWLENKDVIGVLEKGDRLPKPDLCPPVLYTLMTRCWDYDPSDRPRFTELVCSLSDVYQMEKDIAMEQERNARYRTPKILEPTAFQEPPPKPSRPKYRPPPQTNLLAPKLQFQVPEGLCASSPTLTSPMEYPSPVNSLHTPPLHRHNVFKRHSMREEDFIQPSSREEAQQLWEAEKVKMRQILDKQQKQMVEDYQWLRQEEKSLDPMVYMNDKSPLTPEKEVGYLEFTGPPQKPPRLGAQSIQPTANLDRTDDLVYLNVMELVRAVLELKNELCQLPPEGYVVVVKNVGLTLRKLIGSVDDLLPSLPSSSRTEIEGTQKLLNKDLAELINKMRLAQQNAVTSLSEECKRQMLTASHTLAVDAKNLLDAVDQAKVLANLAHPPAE
The method, boiled down:
as §1

A further experiment has as its target T3, Aurora-B(h) (Homo sapiens, UniProt Q96GD4).
T3 construct: gene AURKB
The method, boiled down: as §1

In the next experiment the target is T4, TAK1(h) (Homo sapiens, UniProt O43318).
T4 construct: gene MAP3K7
Put shortly: as §1

The target of a further experiment is TNIK(h) (Homo sapiens, UniProt Q9UKE5). The method, boiled down:
as §1

The target of another experiment is T5, Aurora-C(h) (Homo sapiens, UniProt Q9UQB9).
T5 construct: gene AURKC
Put shortly: as §1

A further experiment concerns the target CSK(h) (Homo sapiens, UniProt P41240). Put shortly:
as §1

For another experiment, the target named is SNRK(h) (Homo sapiens, UniProt Q9NRH2). Put shortly:
as §1

The next experiment has as its target Flt1(h) (Homo sapiens, UniProt P17948). Put shortly: as §1
The target in a further experiment is T6, PKCδ(h) (Homo sapiens, UniProt Q05655).
T6 construct: gene PRKCD
T6 sequence (Q05655 whole entry): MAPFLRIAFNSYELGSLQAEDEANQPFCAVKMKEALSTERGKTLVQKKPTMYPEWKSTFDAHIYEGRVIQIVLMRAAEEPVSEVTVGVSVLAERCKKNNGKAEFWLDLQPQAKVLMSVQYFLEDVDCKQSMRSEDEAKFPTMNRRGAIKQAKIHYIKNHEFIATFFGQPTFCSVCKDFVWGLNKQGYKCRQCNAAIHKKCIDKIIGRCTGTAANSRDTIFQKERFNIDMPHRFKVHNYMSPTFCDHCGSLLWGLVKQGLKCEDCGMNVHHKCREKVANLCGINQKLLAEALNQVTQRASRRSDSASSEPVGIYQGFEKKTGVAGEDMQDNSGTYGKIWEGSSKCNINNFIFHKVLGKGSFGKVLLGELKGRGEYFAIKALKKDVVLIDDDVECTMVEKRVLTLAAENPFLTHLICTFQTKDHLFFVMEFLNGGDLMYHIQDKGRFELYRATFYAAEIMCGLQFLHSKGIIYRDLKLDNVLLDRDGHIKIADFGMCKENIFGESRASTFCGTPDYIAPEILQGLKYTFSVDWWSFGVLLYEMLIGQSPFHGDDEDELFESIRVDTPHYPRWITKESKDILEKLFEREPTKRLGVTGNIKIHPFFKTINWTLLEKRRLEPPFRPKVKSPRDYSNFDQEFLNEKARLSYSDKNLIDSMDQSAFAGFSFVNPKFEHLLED
Put shortly: as §1

A further experiment concerns the target STK32B(h) (Homo sapiens, UniProt Q9NY57). Put shortly:
as §1

For a further experiment, the target named is T7, MEK1(h) (Homo sapiens, UniProt Q02750).
T7 construct: gene MAP2K1
T7 sequence (Q02750 whole entry): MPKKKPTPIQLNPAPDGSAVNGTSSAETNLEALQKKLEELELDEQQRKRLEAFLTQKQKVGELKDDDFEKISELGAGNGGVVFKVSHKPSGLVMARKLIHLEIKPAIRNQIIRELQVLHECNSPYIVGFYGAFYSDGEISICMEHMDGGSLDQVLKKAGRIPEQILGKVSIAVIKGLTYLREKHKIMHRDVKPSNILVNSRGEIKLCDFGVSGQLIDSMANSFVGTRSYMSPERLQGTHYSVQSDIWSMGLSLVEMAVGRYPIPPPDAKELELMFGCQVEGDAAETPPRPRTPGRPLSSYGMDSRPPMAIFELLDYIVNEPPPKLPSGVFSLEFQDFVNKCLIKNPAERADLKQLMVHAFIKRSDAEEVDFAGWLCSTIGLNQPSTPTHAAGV
The method, boiled down: as §1

Another experiment deals with T8, MSK2(h) (Homo sapiens, UniProt O75676).
T8 construct: gene RPS6KA4
Put shortly: as §1

The target of a further experiment is TGFBR2(h) (Homo sapiens, UniProt P37173). The method, boiled down: as §1
Another experiment has as its target NEK9(h) (Homo sapiens, UniProt Q8TD19). The method, boiled down: as §1
In the next experiment the target is T9, PKA(h) (Homo sapiens, UniProt P17612).
T9 construct: gene PRKACA
The method, boiled down:
as §1

In the next experiment the target is T10, NIM1(h) (Homo sapiens, UniProt Q8IY84).
T10 construct: gene NIM1K
The method, boiled down:
as §1

For the next experiment, the target named is ATR/ATRIP(h) (Homo sapiens, UniProt Q13535). The method, boiled down:
as §1

The next experiment concerns the target Lck(h) (Homo sapiens, UniProt P06239). Put shortly:
as §1

A further experiment addresses HIPK4(h) (Homo sapiens, UniProt Q8NE63). The method, boiled down: as §1
For a further experiment, the target named is T11, MAPK1(h) (Homo sapiens, UniProt P27361).
T11 construct: gene MAPK3
T11 sequence (P27361 whole entry): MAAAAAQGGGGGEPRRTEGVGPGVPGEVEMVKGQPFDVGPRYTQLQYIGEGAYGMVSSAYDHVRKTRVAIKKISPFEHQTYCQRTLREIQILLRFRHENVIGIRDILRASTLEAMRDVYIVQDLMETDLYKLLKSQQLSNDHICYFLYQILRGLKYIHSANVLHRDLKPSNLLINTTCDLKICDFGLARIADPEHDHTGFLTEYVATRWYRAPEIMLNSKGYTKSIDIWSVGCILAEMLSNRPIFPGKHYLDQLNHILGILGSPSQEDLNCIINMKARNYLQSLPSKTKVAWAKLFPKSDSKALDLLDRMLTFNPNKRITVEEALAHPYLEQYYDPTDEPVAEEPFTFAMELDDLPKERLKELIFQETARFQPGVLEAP
The method, boiled down: as §1

A further experiment deals with T12, CaMKIV(h) (Homo sapiens, UniProt Q16566).
T12 construct: gene CAMK4
The method, boiled down:
as §1

Sequence of CSK(h) (P41240 whole entry): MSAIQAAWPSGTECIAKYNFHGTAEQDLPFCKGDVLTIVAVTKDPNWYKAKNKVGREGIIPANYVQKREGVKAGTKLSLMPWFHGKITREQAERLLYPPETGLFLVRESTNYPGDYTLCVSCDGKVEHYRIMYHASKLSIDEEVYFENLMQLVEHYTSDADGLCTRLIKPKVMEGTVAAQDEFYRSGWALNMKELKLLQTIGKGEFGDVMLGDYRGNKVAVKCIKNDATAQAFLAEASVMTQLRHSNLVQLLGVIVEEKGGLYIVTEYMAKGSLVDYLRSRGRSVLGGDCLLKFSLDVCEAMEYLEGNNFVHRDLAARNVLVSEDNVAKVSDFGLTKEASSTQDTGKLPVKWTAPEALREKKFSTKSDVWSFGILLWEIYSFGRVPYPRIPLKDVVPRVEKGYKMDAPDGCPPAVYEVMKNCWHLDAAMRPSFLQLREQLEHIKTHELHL
Sequence of HIPK4(h) (Q8NE63 whole entry): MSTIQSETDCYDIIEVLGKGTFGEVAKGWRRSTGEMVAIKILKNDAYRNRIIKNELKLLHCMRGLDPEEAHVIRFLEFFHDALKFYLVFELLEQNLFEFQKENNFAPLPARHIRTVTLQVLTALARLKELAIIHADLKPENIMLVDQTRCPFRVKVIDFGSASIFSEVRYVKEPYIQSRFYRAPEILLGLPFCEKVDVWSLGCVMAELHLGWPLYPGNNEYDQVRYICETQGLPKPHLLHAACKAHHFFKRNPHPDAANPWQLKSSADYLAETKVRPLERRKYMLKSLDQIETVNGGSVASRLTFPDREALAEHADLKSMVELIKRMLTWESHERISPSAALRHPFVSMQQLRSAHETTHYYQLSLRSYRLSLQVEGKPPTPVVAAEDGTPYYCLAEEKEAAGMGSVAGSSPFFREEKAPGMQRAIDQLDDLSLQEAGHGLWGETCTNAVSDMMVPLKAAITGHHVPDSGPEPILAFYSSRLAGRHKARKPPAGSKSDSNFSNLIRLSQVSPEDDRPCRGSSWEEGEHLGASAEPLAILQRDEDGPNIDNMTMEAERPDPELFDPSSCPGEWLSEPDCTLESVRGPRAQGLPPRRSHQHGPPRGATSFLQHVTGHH
Sequence of Flt1(h) (P17948 whole entry): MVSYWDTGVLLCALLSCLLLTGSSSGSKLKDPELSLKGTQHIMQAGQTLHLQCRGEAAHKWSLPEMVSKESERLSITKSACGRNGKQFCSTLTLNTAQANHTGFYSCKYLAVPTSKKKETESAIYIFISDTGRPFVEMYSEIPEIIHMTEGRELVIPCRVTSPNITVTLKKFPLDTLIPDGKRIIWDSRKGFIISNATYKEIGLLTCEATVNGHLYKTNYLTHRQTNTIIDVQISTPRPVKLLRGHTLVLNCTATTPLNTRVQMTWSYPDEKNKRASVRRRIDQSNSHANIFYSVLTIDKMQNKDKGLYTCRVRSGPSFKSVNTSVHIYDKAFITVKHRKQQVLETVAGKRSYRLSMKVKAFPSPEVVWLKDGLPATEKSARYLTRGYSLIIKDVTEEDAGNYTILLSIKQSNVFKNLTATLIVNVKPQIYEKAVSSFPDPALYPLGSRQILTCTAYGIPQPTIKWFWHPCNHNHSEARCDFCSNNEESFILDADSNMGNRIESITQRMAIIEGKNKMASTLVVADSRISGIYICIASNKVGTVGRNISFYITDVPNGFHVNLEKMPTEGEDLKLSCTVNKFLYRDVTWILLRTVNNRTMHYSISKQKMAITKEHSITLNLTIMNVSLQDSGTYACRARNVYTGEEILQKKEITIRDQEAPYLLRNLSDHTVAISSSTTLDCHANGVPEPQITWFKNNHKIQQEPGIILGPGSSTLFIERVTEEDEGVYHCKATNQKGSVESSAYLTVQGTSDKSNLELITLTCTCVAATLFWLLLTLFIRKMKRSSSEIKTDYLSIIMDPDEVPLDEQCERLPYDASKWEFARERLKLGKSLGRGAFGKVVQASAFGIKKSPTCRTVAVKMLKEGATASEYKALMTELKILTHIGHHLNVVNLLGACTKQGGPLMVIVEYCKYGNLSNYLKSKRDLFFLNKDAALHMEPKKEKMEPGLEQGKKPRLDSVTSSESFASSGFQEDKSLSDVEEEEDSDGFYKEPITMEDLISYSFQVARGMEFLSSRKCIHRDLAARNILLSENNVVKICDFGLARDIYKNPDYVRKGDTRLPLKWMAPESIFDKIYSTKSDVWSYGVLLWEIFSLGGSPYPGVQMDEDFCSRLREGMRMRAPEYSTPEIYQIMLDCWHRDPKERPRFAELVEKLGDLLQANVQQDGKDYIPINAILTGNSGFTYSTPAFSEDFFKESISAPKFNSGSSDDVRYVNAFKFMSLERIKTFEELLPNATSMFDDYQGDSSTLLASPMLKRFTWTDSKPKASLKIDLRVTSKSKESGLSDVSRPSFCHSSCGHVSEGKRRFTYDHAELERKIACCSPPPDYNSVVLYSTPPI

Regarding `C1=C(c2nc(-c3cnn(C4CCNCC4)c3)cn3cc(-c4ccccc4)nc23)CCOC1` [YL-939], the remaining activity at 10 µM on Flt3(h) amounted to 86%; at FAK(h), 112%; on Pyk2(h), 108%; at Aurora-B(h), 89%; on TAK1(h) it was 77%; on TNIK(h), 56%. The remaining activity at 10 µM at Aurora-C(h) was 101%; on CSK(h), 105%; at SNRK(h) it was 100%; on Flt1(h), 65%; at PKCδ(h) it was 81%; at STK32B(h), 105%. Moreover, the remaining activity at 10 µM amounted to 109% on MEK1(h); 90% at MSK2(h); 97% on TGFBR2(h); 99% on NEK9(h); 98% at PKA(h); 85% on NIM1(h). Also, the remaining activity at 10 µM was 88% on ATR/ATRIP(h); 122% on Lck(h); 106% at HIPK4(h); 103% at MAPK1(h); 77% at CaMKIV(h).
